One assay has as its target KRAS G12V (Homo sapiens (Human), UniProt P01116+P62937, G12V). The assay can be described thus: Ras-Raf (BRAF RBD) disruption / FRET / MOA assay, KRAS G12V. Type of assay: biochemical. To be noted: read-out: IC50* KRAS G12V FRET data. A digest of the protocol:
(§1)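 A 10-point, 3-fold dilution series topping at 30 μM final was incubated 3 h at 25° C with the Ras/cyclophilin A/BRAF RBD mixture.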

For a further assay, the target named is KRAS Q61H (Homo sapiens (Human), UniProt P01116+P62937, Q61H). The assay can be described thus: Ras-Raf (BRAF RBD) disruption / FRET / MOA assay, KRAS Q61H. The format is biochemical. The conditions noted are these: Ras-Raf disruption/FRET/MOA assay; class symbols; read-out: KRAS Q61H FRET data IC50. The procedure, abridged:
(§2)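 Compounds (30 μM top final, 10-point 3-fold dilutions) incubated 3 h at 25° C with nucleotide-loaded Ras, cyclophilin A and BRAF RBD. Detection with 10 nM anti-His Eu-W1024 and 50 nM anti-GST allophycocyanin over another 1.5 h. Lowered TR-FRET ratio relative to DMSO wells gives IC50.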

The next assay deals with KRAS G12D (Homo sapiens (Human), UniProt P01116+P62937, G12D). Kind of assay: Ras-Raf (BRAF RBD) disruption / FRET / MOA assay, KRAS G12D. The format is biochemical. To be noted: Ras-Raf disruption/FRET/MOA assay; class symbols; read-out: KRAS G12D FRET data IC50. A digest of the protocol: as §1
A further assay addresses NRAS G12C (Homo sapiens (Human), UniProt P01111+P62937, G12C). The assay can be described thus: Ras-Raf (BRAF RBD) disruption / FRET / MOA assay, NRAS G12C. The conditions noted are these: read-out: IC50* NRAS G12C FRET data. Type of assay: biochemical. The procedure, abridged: as §1
The target of a further assay is KRAS WT (Homo sapiens (Human), UniProt P01116+P62937). Kind of assay: Ras-Raf (BRAF RBD) disruption / FRET / MOA assay, KRAS WT. Type of assay: biochemical. To be noted: read-out: IC50* KRAS WT FRET data. The procedure, abridged:
as §1

A further assay addresses NRAS Q61K (Homo sapiens (Human), UniProt P01111+P62937, Q61K). The assay can be described thus: Ras-Raf (BRAF RBD) disruption / FRET / MOA assay, NRAS Q61K. The format is biochemical. The conditions noted are these: NRAS Q61K; Ras-Raf disruption/FRET/MOA assay; read-out: IC50* NRAS Q61K FRET data. The procedure, abridged:
as §2

In the next assay the target is NRAS WT (Homo sapiens (Human), UniProt P01111+P62937). Kind of assay: Ras-Raf (BRAF RBD) disruption / FRET / MOA assay, NRAS WT. The format is biochemical. To be noted: read-out: IC50* NRAS WT FRET data. The procedure, abridged: as §2
For the next assay, the system named is NCI-H358 (K-Ras G12C). Kind of assay: CellTiter-Glo cell viability assay, NCI-H358. The format is cell-based, human. The conditions noted are these: Homo sapiens, NCI-H358, 120 h, NCI-H358, 5-day treatment; class symbols; read-out: Additional H358 Cell Viability assay data (K-Ras G12C, IC50). The procedure, abridged: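 Compounds were dispensed directly onto K-Ras mutant cells and incubated until day 5, then plates were equilibrated to room temperature for about 30 minutes before CellTiter-Glo luminescence. Signals were normalized as (sample/average DMSO)*100 and fitted by four-parameter logistic fit.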
A general note: ATP-based viability assays read luminescence as a measure of living cells.

The target in another assay is K-Ras G13C (Homo sapiens (Human), UniProt P01116+P62937, G13C). The assay can be described thus: Ras-Raf (BRAF RBD) disruption / FRET / MOA assay, KRAS G13C. Type of assay: biochemical. The conditions noted are these: KRAS G13C; Ras-Raf disruption/FRET/MOA assay; read-out: IC50* KRAS G13C FRET data. A digest of the protocol:
as §1

For the next assay, the target named is KRAS G13D (Homo sapiens (Human), UniProt P01116+P62937, G13D). The assay can be described thus: Ras-Raf (BRAF RBD) disruption / FRET / MOA assay, KRAS G13D. The format is biochemical. To be noted: read-out: IC50* KRAS G13D FRET data. The procedure, abridged: as §1
A further assay has as its target KRAS G12S (Homo sapiens (Human), UniProt P01116+P62937, G12S). The assay can be described thus: Ras-Raf (BRAF RBD) disruption / FRET / MOA assay, KRAS G12S. Type of assay: biochemical. To be noted: Ras-Raf disruption/FRET/MOA assay; class symbols; read-out: KRAS G12S FRET data IC50. The procedure, abridged: as §1
Another assay has as its target NRAS Q61R (Homo sapiens (Human), UniProt P01111+P62937, Q61R). Kind of assay: Ras-Raf (BRAF RBD) disruption / FRET / MOA assay, NRAS Q61R. Type of assay: biochemical. To be noted: NRAS Q61R; Ras-Raf disruption/FRET/MOA assay; read-out: IC50* NRAS Q61R FRET data. A digest of the protocol: as §2

Each structure is given as a SMILES string.

Chain of KRAS G12V (P01116-2 other isoform, or with tags, fused parts or gaps G12V): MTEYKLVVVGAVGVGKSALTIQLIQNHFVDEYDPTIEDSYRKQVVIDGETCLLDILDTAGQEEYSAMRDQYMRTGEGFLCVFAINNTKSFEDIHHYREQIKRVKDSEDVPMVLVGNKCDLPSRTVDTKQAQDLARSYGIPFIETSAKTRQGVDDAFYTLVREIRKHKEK
Chain of KRAS G12V (P62937 whole entry): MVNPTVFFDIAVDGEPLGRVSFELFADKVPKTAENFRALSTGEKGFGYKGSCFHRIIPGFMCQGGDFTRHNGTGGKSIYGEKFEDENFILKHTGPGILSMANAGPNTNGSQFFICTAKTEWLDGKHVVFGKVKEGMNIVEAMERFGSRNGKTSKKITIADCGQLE
Chain of KRAS G12D (P01116-2 other isoform, or with tags, fused parts or gaps G12D): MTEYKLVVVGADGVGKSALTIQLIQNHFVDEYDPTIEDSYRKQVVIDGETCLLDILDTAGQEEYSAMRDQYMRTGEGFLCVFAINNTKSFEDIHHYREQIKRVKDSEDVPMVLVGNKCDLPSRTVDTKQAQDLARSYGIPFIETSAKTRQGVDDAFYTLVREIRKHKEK
Chain of KRAS G12D (P62937 whole entry): as the sequence (P62937 whole entry) above
Chain of KRAS WT (P01116-2 other isoform, or with tags, fused parts or gaps): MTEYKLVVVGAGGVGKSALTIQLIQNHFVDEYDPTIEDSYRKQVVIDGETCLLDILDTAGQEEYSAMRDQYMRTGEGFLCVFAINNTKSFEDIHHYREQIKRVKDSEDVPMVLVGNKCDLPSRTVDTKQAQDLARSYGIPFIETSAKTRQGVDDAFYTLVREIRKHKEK
Chain of KRAS WT (P62937 whole entry): as the sequence (P62937 whole entry) above
Chain of NRAS Q61K (P01111 whole entry Q61K): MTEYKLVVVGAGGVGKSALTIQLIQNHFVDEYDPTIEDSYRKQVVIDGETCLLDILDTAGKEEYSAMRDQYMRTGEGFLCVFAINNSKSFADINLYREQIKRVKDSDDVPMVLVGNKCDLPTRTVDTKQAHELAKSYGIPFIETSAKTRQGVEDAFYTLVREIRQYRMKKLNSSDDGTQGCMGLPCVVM
Chain of NRAS Q61K (P62937 whole entry): as the sequence (P62937 whole entry) above
Chain of K-Ras G13C (P01116-2 other isoform, or with tags, fused parts or gaps G13C): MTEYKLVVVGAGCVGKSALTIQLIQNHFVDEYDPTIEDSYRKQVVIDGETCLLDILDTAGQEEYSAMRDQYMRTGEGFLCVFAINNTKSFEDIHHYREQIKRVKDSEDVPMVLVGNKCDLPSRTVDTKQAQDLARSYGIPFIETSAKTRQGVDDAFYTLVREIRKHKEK
Chain of K-Ras G13C (P62937 whole entry): as the sequence (P62937 whole entry) above
Chain of KRAS G12S (P01116-2 other isoform, or with tags, fused parts or gaps G12S): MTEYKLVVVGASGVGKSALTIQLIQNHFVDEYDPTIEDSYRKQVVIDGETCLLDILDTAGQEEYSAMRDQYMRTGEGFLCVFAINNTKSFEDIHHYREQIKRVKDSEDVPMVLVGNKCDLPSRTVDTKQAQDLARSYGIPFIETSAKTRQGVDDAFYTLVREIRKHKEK
Chain of KRAS G12S (P62937 whole entry): as the sequence (P62937 whole entry) above
Chain of NRAS Q61R (P01111 whole entry Q61R): as the sequence (P01111 whole entry Q61K) above, with K61R counted along it
Chain of NRAS Q61R (P62937 whole entry): as the sequence (P62937 whole entry) above
Chain of KRAS G13D (P01116-2 other isoform, or with tags, fused parts or gaps G13D): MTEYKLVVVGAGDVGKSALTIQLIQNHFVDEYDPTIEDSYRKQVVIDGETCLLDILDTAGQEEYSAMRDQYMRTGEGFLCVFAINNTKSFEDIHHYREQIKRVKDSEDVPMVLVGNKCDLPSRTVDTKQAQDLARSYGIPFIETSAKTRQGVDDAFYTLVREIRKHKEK
Chain of KRAS G13D (P62937 whole entry): as the sequence (P62937 whole entry) above
Chain of NRAS G12C (P01111 whole entry G12C): as the sequence (P01111 whole entry Q61K) above, with G12C, K61Q counted along it
Chain of NRAS G12C (P62937 whole entry): as the sequence (P62937 whole entry) above
Chain of KRAS Q61H (P01116-2 other isoform, or with tags, fused parts or gaps Q61H): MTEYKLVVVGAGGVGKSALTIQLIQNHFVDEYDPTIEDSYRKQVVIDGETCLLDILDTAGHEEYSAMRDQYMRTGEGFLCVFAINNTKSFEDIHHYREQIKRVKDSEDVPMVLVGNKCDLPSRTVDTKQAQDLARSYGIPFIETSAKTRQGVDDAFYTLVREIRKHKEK
Chain of KRAS Q61H (P62937 whole entry): as the sequence (P62937 whole entry) above
Chain of NRAS WT (P01111 whole entry): as the sequence (P01111 whole entry Q61K) above, with K61Q counted along it
Chain of NRAS WT (P62937 whole entry): as the sequence (P62937 whole entry) above

On to `CCn1c(-c2cccnc2)c2c3cc(ccc31)-c1csc(c1)C[C@H](NC(=O)[C@H](C(C)C)N(C)C(=O)[C@H]1CCN(C(=O)C#CCN3CCOCC3)C1)C(=O)N1CCC[C@H](N1)C(=O)OCC(C)(C)C2` [Example A205], for which the IC50 at KRAS G12V is > 10000 nM; on KRAS Q61H, > 10000 nM; at KRAS G12D it was > 10000 nM; at NRAS G12C it was 1000 to 10000 nM; at KRAS WT it was > 10000 nM; at NRAS Q61K, > 10000 nM. In addition, the IC50 on NRAS WT was > 10000 nM; in the assay with NCI-H358 (K-Ras G12C) it was 100 to 1000 nM; on K-Ras G13C, > 10000 nM; on KRAS G13D, > 10000 nM; at KRAS G12S it was > 10000 nM; at NRAS Q61R, > 10000 nM.

Take `CCn1c(-c2cccnc2[C@H](C)OC)c2c3cc(ccc31)N1CCO[C@@](C)(C[C@H](NC(=O)[C@H](C(C)C)N(C)C(=O)C3(F)CCN(C(=O)C#CC(C)(C)N(C)C)CC3)C(=O)N3CCC[C@H](N3)C(=O)OCC(C)(C)C2)C1` [Example A550]: the IC50 on KRAS G12V was 100 to 1000 nM; at KRAS Q61H, 1000 to 10000 nM; at KRAS G12D it was 1000 to 10000 nM; at NRAS G12C it was < 10 nM; at KRAS WT, 100 to 1000 nM; on NRAS Q61K it was 1000 to 10000 nM. Besides, the IC50 at NRAS WT was 100 to 1000 nM; in the assay on NCI-H358 (K-Ras G12C) it was < 10 nM; on K-Ras G13C it was 100 to 1000 nM; on KRAS G13D it was 1000 to 10000 nM; at KRAS G12S, 1000 to 10000 nM; at NRAS Q61R, 1000 to 10000 nM.

For the compound `C=CC(=O)N1CC[C@]2(C1)OCN([C@H](C(=O)N[C@H]1Cc3cccc(n3)-c3ccc4c(c3)c(c(-c3cccnc3[C@H](C)OC)n4CC)CC(C)(C)COC(=O)[C@@H]3CCCN(N3)C1=O)C(C)C)C2=O` (atropisomer, axis not shown) [Example A652], the IC50 on KRAS G12V was 1000 to 10000 nM; on KRAS Q61H it was 1000 to 10000 nM; at KRAS G12D it was > 10000 nM; at NRAS G12C, 100 to 1000 nM; on KRAS WT, 1000 to 10000 nM; at NRAS Q61K, 1000 to 10000 nM. In addition, the IC50 on NRAS WT lay in the range of 1000 to 10000 nM; in the assay with NCI-H358 (K-Ras G12C) it was 100 to 1000 nM; on K-Ras G13C, 100 to 1000 nM; on KRAS G13D it was 1000 to 10000 nM; at KRAS G12S it was 1000 to 10000 nM; on NRAS Q61R it was 1000 to 10000 nM.

In the case of `C=CC(=O)N1CC[C@H](C(=O)N(C)[C@H](C(=O)N[C@H]2C[C@H]3CN(CCO3)c3ccc4c(c3)c(c(-c3cccnc3COC)n4CC)CC(C)(C)COC(=O)[C@@H]3CCCN(N3)C2=O)C(C)C)C1` [Example A240], the IC50 on KRAS G12V was > 10000 nM; on KRAS Q61H, > 10000 nM; at KRAS G12D it was > 10000 nM; at NRAS G12C, 1000 to 10000 nM; at KRAS WT it was > 10000 nM; on NRAS Q61K it was > 10000 nM. Besides, the IC50 at NRAS WT was > 10000 nM; with NCI-H358 (K-Ras G12C), > 1000 nM; on K-Ras G13C, > 10000 nM; at KRAS G13D, > 10000 nM; on KRAS G12S, > 10000 nM; on NRAS Q61R, > 10000 nM.

For `CO[C@@H](C)c1ncccc1-c1c2c3cc(ccc3n1CC(F)(F)F)-c1cccc(c1)C[C@H](NC(=O)[C@H](C(C)C)N1CC[C@]3(CCN(C(=O)C#CC(C)(C)N(C)C)C3)C1=O)C(=O)N1CCC[C@H](N1)C(=O)OCC(C)(C)C2` (atropisomer, axis not shown) [Example A689], the IC50 is 1000 to 10000 nM at KRAS G12V; 100 to 1000 nM at KRAS Q61H; 1000 to 10000 nM on KRAS G12D; < 10 nM at NRAS G12C; 1000 to 10000 nM at KRAS WT; 1000 to 10000 nM on NRAS Q61K. Moreover, the IC50 on NRAS WT was 1000 to 10000 nM; with NCI-H358 (K-Ras G12C), < 10 nM; on K-Ras G13C it was 100 to 1000 nM; at KRAS G13D it was 1000 to 10000 nM; on KRAS G12S, 100 to 1000 nM; at NRAS Q61R, 1000 to 10000 nM.

For orientation: IC50 means the point on the concentration scale where inhibition reaches its midpoint.
